Like-named read-outs stand apart in the source and are kept apart here.
Legend:
Format in all cases: cell-based
[1] = system: LNCaP; assay: Inhibition of cell growth by colorimetric SRB assay, LN-caP; settings: Homo sapiens; for IC (total growth inhibition): read-out: TGI
Summary of the method: (§1)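 Absorbance of solubilized bound SRB (490 nm) quantified cell growth and viability after cells were exposed to compound for 48 h. Seeding was 5×10^3 cells per well in RPMI 1640/10% FBS, with 18 h attachment beforehand. GI, TGI and LC were calculated from means of triplicate wells.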

[2] = system: K-562; assay: Inhibition of cell growth by colorimetric SRB assay, K-562; settings: Homo sapiens; for IC (total growth inhibition): read-out: TGI
Summary of the method: as §1

[3] = system: IGROV; assay: Inhibition of cell growth by colorimetric SRB assay, IGROV; settings: Homo sapiens; for IC (total growth inhibition): read-out: TGI
Summary of the method: as §1

[4] = system: SK-BR-3; assay: Inhibition of cell growth by colorimetric SRB assay, SK-BR-3; settings: for GI50 / CC50: Homo sapiens; for TGI: total growth inhibition
Summary of the method: as §1

[5] = system: LoVo; assay: Inhibition of cell growth by colorimetric SRB assay, LOVO; settings: Homo sapiens; for LC50: read-out: LC50; for IC (total growth inhibition): read-out: TGI
Summary of the method: as §1

[6] = system: HT-29; assay: Inhibition of cell growth by colorimetric SRB assay, HT-29; settings: Homo sapiens; for IC (total growth inhibition): read-out: TGI
Summary of the method: as §1

[7] = system: PANC-1; assay: Inhibition of cell growth by colorimetric SRB assay, PANC-1; settings: Homo sapiens; for IC (total growth inhibition): read-out: TGI
Summary of the method: as §1

[8] = system: LoVo-Dox; assay: Inhibition of cell growth by colorimetric SRB assay, LOVO-DOX; settings: Homo sapiens; for LC50 (concentration for 50% cell killing): read-out: LC50; for IC (total growth inhibition): read-out: TGI
Summary of the method: as §1

[9] = system: IGROV-ET; assay: Inhibition of cell growth by colorimetric SRB assay, IGROV-ET; settings: Homo sapiens; for IC (total growth inhibition): read-out: TGI
Summary of the method: as §1

[10] = system: A-549; assay: Inhibition of cell growth by colorimetric SRB assay, A-549; settings: Homo sapiens; for IC (total growth inhibition): read-out: TGI
Summary of the method: as §1

[11] = system: HeLa-APL; assay: Inhibition of cell growth by colorimetric SRB assay, HELA-APL; settings: Homo sapiens
Summary of the method: as §1

[12] = system: DU-145; assay: Inhibition of cell growth by colorimetric SRB assay, DU-145; settings: Homo sapiens; for IC (total growth inhibition): read-out: TGI
Summary of the method: as §1

[13] = system: HeLa; assay: Inhibition of cell growth by colorimetric SRB assay, HELA; settings: Homo sapiens; for IC (total growth inhibition): read-out: TGI
Summary of the method: as §1

[14] = system: SK-MEL-28; assay: Inhibition of cell growth by colorimetric SRB assay, MEL-28; settings: Homo sapiens; for IC (total growth inhibition): read-out: TGI
Summary of the method: as §1

[15] = SK-MEL-28, MEL-28, 48 hours exposure

C/C=C\[C@H](C)[C@H]1OC1(C)[C@@H](O[Si](C)(C)C(C)(C)C)[C@@H](CO)C(=O)[C@H](CO)[C@H](O)CC(=O)CC (stereo partly drawn) [20b + 20d]
GI50 ([1]; LN-caP, 48 hours exposure): 12.4 µM | CC50 ([1]; LN-caP, 48 hours exposure, cell killing, read-out: LC50 (the source's name)): 20.5 µM | IC (total growth inhibition) ([1]; LN-caP, 48 hours exposure): 20.5 µM | GI50 ([2]; K562, K-562, 48 hours exposure): 10.3 µM | CC50 ([2]; K562, K-562, 48 hours exposure, cell killing, read-out: LC50 (the source's name)): 20.5 µM | IC (total growth inhibition) ([2]; K562, K-562, 48 hours exposure): 20.5 µM | GI50 ([3]; 48 hours exposure): 20.5 µM | CC50 ([3]; 48 hours exposure, cell killing, read-out: LC50 (the source's name)): 20.5 µM | IC (total growth inhibition) ([3]; 48 hours exposure): 20.5 µM | GI50 ([4]; SK-BR-3, 48 hours exposure): 14.9 µM | CC50 ([4]; SK-BR-3, 48 hours exposure, cell killing, read-out: LC50 (the source's name)): 20.5 µM | TGI ([4]; SK-BR-3, 48 hours exposure): 2.05E−05 Molar | GI50 ([5]; LOVO, 48 hours exposure): 20.5 µM | LC50 ([5]; LOVO, 48 hours exposure, cell killing): 20.5 µM | IC (total growth inhibition) ([5]; LOVO, 48 hours exposure): 20.5 µM | GI50 ([6]; HT-29, 48 hours exposure): 20.5 µM | CC50 ([6]; HT-29, 48 hours exposure, cell killing, read-out: LC50 (the source's name)): 20.5 µM | IC (total growth inhibition) ([6]; HT-29, 48 hours exposure): 20.5 µM | GI50 ([7]; PANC-1, 48 hours exposure): 9.37 µM | CC50 ([7]; PANC-1, 48 hours exposure, cell killing, read-out: LC50 (the source's name)): 20.5 µM | IC (total growth inhibition) ([7]; PANC-1, 48 hours exposure): 20.5 µM | GI50 ([8]; LOVO-DOX, 48 hours exposure): 20.5 µM | LC50 (concentration for 50% cell killing) ([8]; LOVO-DOX, 48 hours exposure, cell killing): 20.5 µM | IC (total growth inhibition) ([8]; LOVO-DOX, 48 hours exposure): 20.5 µM | GI50 ([9]; IGROV-ET, 48 hours exposure): 20.5 µM | CC50 ([9]; IGROV-ET, 48 hours exposure, cell killing, read-out: LC50 (the source's name)): 20.5 µM | IC (total growth inhibition) ([9]; IGROV-ET, 48 hours exposure): 20.5 µM | GI50 ([10]; A549, A-549, 48 hours exposure): 20.5 µM | CC50 ([10]; A549, A-549, 48 hours exposure, cell killing, read-out: LC50 (the source's name)): 20.5 µM | IC (total growth inhibition) ([10]; A549, A-549, 48 hours exposure): 20.5 µM | CC50 ([11]; HELA-APL, 48 hours exposure, cell killing, read-out: LC50 (the source's name)): 20.5 µM | GI50 ([12]; DU-145, 48 hours exposure): 20.5 µM | CC50 ([12]; DU-145, 48 hours exposure, cell killing, read-out: LC50 (the source's name)): 20.5 µM | IC (total growth inhibition) ([12]; DU-145, 48 hours exposure): 20.5 µM | GI50 ([13]; HELA, 48 hours exposure): 20.5 µM | CC50 ([13]; HELA, 48 hours exposure, cell killing, read-out: LC50 (the source's name)): 20.5 µM | IC (total growth inhibition) ([13]; HELA, 48 hours exposure): 20.5 µM | GI50 [14, 15]: 20.5 µM | CC50 ([14]; SK-MEL-28, MEL-28, 48 hours exposure, cell killing, read-out: LC50 (the source's name)): 20.5 µM | IC (total growth inhibition) [14, 15]: 20.5 µM

C=C(C(=O)[C@H](COC(C)=O)[C@H](O)C1(C)O[C@@H]1[C@@H](C)/C=C\C)[C@@H](O)CC(=O)CC (stereo partly drawn) [Compound 1]
CC50 ([1]; 48 h, read-out: LC50): ≥ 25.2 µM | GI50 ([1]; LN-caP, 48 hours exposure): 1.45 µM | IC (total growth inhibition) ([1]; LN-caP, 48 hours exposure): 6.31 µM | CC50 ([2]; K562, 48 h, read-out: LC50): 24.6 µM | GI50 ([2]; K562, K-562, 48 hours exposure): 1.99 µM | IC (total growth inhibition) ([2]; K562, K-562, 48 hours exposure): 7.36 µM | CC50 ([3]; 48 h, read-out: LC50): 17.6 µM | GI50 ([3]; 48 hours exposure): 1.63 µM | IC (total growth inhibition) ([3]; 48 hours exposure): 5.67 µM | CC50 ([4]; SK-BR-3, 48 h, read-out: LC50): 3.43 µM | GI50 ([4]; SK-BR-3, 48 hours exposure): 0.469 µM | TGI ([4]; SK-BR-3, 48 hours exposure): 1.11E−05 Molar | LC50 ([5]; LoVo, 48 h): 12.6 µM | GI50 ([5]; LOVO, 48 hours exposure): 1.62 µM | IC (total growth inhibition) ([5]; LOVO, 48 hours exposure): 4.87 µM | CC50 ([6]; HT-29, 48 h, read-out: LC50): 13.4 µM | GI50 ([6]; HT-29, 48 hours exposure): 1.67 µM | IC (total growth inhibition) ([6]; HT-29, 48 hours exposure): 5.37 µM | CC50 ([7]; PANC-1, 48 h, read-out: LC50): 21.3 µM | GI50 ([7]; PANC-1, 48 hours exposure): 3.33 µM | IC (total growth inhibition) ([7]; PANC-1, 48 hours exposure): 8.4 µM | LC50 (concentration for 50% cell killing) ([8]; 48 h): 21.1 µM | GI50 ([8]; LOVO-DOX, 48 hours exposure): 3.13 µM | IC (total growth inhibition) ([8]; LOVO-DOX, 48 hours exposure): 8.1 µM | CC50 ([9]; 48 h, read-out: LC50): 23.7 µM | GI50 ([9]; IGROV-ET, 48 hours exposure): 3.1 µM | IC (total growth inhibition) ([9]; IGROV-ET, 48 hours exposure): 8.58 µM | CC50 ([10]; A549, 48 h, read-out: LC50): 23.5 µM | GI50 ([10]; A549, A-549, 48 hours exposure): 1.1 µM | IC (total growth inhibition) ([10]; A549, A-549, 48 hours exposure): 5.04 µM | GI50 ([11]; 48 h): 1.72 µM | IC (total growth inhibition) ([11]; 48 h, read-out: TGI): 6.23 µM | CC50 ([12]; DU-145, 48 h, read-out: LC50): ≥ 25.2 µM | GI50 ([12]; DU-145, 48 hours exposure): 3.66 µM | IC (total growth inhibition) ([12]; DU-145, 48 hours exposure): 10.2 µM | CC50 ([13]; HeLa, 48 h, read-out: LC50): 20.5 µM | GI50 ([13]; HELA, 48 hours exposure): 1.99 µM | IC (total growth inhibition) ([13]; HELA, 48 hours exposure): 6.66 µM | CC50 ([14]; SK-MEL-28, 48 h, read-out: LC50): 13.6 µM | GI50 [14, 15]: 2.72 µM | IC (total growth inhibition) [14, 15]: 6.1 µM

Source: patent US7521478B2, “Total synthesis of myriaporones” (Pharma Mar, S.A.U., priority 2002, dated 2009)
